Data as given in patent publication US10882838B2, “Cannabinergic compounds and uses thereof” (Northeastern University, priority 2012, dated 2021).
Where two headings read alike, the source gives them in different places.

Experiments:
[1] = target: mCB2 receptor (Mus musculus (Mouse), UniProt P47936); assay: mCB2 competition-equilibrium binding with [3H]CP-55,940, membranes of HEK293 cells expressing mCB2
Method: (§1) HEK293 cells expressing hCB1 or hCB2 or mCB2 receptor are used for membrane preparations according to Abadji et al. The resulting pellet is resuspended in 10 mM Tris-chloride, pH 7.4, with 5 mM MgCl2 and 2 mM EDTA (TME), rapidly frozen in liquid nitrogen and stored at −80° C. for no longer than two months. Protein content is assayed by using the Bio-Rad protein assay according to the manufacturer's protocol.
(§2) All the cannabinoids discussed in this invention are tested for their ability to bind to CB1 and CB2 receptors using membranes from rat brain or HEK293 cells expressing either mCB2 or hCB2, respectively via competition-equilibrium binding using [^3H]CP-55,940. Results are analyzed using nonlinear regression to determine ligand IC50 (Prism by GraphPad Software, Inc.), and Ki values are calculated from the IC50. IC50 and Ki values are determined from at least three independent experiments.

[2] = Stability in plasma (half-life); format: in vitro ADME, rat or monkey; details: method: 200 μM in plasma, 37°; species of plasma not given
Method: The designed compounds carry a side chain that is susceptible to plasma esterase activity, inviting their rapid deactivation. Thus, it is important to characterize the rate of compound metabolism in isolated rat or monkey plasma. As a preliminary predictor of oral stability, this assay will also be done in buffers at pH 2 (to emulate the stomach) and pH 7.4 (physiological pH). Compounds (10 mM in DMSO) are diluted in plasma, acetonitrile or buffer to a concentration of 200 μM and incubated in a 37° shaking water bath for 2 hours. Samples are taken periodically, diluted 1:4 with acetonitrile and centrifuged to precipitate protein. The resulting supernatant is analyzed by HPLC to predict expected in vivo plasma half-lives.

[3] = target: CB1 receptor (Rattus norvegicus (Rat), UniProt P20272); assay: rCB1 competition-equilibrium binding with [3H]CP-55,940, rat brain membranes
Method: Frozen rat brains (CB1 source) are obtained from Pel-Freeze Biologicals (Rogers, Ak.) and stored at −80° C. until use. Membranes are prepared according to the method described by Dodd et al. and used in our laboratory as reported.
as §2

[4] = target: hCB2 receptor (Homo sapiens (Human), UniProt P34972); assay: hCB2 competition-equilibrium binding with [3H]CP-55,940, membranes of HEK293 cells expressing hCB2
Method: as §1, §2

[5] = HEK293 cells expressing mCB2, [3H]CP-55,940, read-out: mCB2 Ki
[6] = rat brain membranes, [3H]CP-55,940, read-out: rCB1 Ki
[7] = HEK293 cells expressing hCB2, [3H]CP-55,940, read-out: hCB2 Ki

SMILES | Ki [1, 5] [nM] | half-life at 200 μM [2] [min] | Ki [3, 6] [nM] | Ki [4, 7] [nM] | Ki [1] [nM] | Ki [3] [nM] | Ki [4] [nM]
COC(=O)C(C)(C)c1cc(O)c2c(c1)OC(C)(C)[C@@H]1CC=C(C)C[C@@H]21 [Compound 1.34, Methyl-2-((6aR,10aR)-6a,7,10,10a-tetrahydro-1-hydroxy-6,6,9-trimethyl-6H-benzo[c]chromen-3-yl)-2-methylpropanoate] | 34.5 | 60 | 83.1 | 36.8 | – | – | –
CC1=CC[C@@H]2[C@@H](C1)c1c(O)cc(C(C)(C)C(=O)OCCCn3ccnc3)cc1OC2(C)C [Compound 1.10, 3-(1H-imidazol-1-yl)propyl-2-((6aR,10aR)-6a,7,10,10a-tetrahydro-1-hydroxy-6,6,9-trimethyl-6H-benzo[c]chromen-3-yl)-2-methylpropanoate] | 2 | 240 | 3.4 | 1.2 | – | – | –
CCCCOC(=O)C(C)c1cc(O)c2c(c1)OC(C)(C)[C@@H]1CC=C(C)C[C@@H]21 (stereo partly drawn) [Compound 1.12, Butyl 2-((6aR,10aR)-1-hydroxy-6,6,9-trimethyl-6a,7,10,10a-tetrahydro-6H-benzo[c]chromen-3-yl)propanoate] | 1.2 | 3 | 0.7 | 1 | – | – | –
CC1=CC[C@@H]2[C@@H](C1)c1c(O)cc(CC(=O)OCCCCBr)cc1OC2(C)C [Compound 1.27, 4-bromobutyl-2-((6aR,10aR)-6a,7,10,10a-tetrahydro-1-hydroxy-6,6,9-trimethyl-6H-benzo[c]chromen-3-yl)acetate] | 11.6 | 3 | 2.2 | 7.1 | – | – | –
CCCCOC(=O)C(C)(C)c1cc(O)c2c(c1)OC(C)(C)[C@@H]1CC[C@H](O)C[C@@H]21 [Compound 3.8, Butyl-2-((6aR,9S,10aR)-6a,7,8,9,10,10a-hexahydro-1,9-dihydroxy-6,6-dimethyl-6H-benzo[c]chromen-3-yl)-2-methylpropanoate] | 6.6 | 8 | 3.1 | 4.5 | – | – | –
CC1=CC[C@@H]2[C@@H](C1)c1c(O)cc(C3(C(=O)OCCCCBr)CCC3)cc1OC2(C)C [Compound 1.18, 4-bromobutyl 1-((6aR,10aR)-1-hydroxy-6,6,9-trimethyl-6a,7,10,10a-tetrahydro-6H-benzo[c]chromen-3-yl)cyclobutanecarboxylate] | 3.7 | 50 | 0.3 | 0.7 | – | – | –
CCCCOC(=O)C(C)(C)c1cc(O)c2c(c1)OC(C)(C)[C@@H]1CC=C(CO)C[C@@H]21 [Compound 2.2, Butyl-2-((6aR,10aR)-6a,7,10,10a-tetrahydro-1-hydroxy-9-(hydroxymethyl)-6,6-dimethyl-6H-benzo[c]chromen-3-yl)-2-methylpropanoate] | 1.5 | 5 | 0.6 | 0.8 | – | – | –
CC1=CC[C@@H]2[C@@H](C1)c1c(O)cc(C(C)(C)C(=O)OCCCCn3ccnc3)cc1OC2(C)C [Compound 1.6, 4-(1H-imidazol-1-yl)butyl 2-((6aR,10aR)-6a,7,10,10a-tetrahydro-1-hydroxy-6,6,9-trimethyl-6H-benzo[c]chromen-3-yl)-2-methylpropanoate] | 11.6 | 120 | 29.1 | 8.7 | – | – | –
CC1=CC[C@@H]2[C@@H](C1)c1c(O)cc(C3(C(=O)OCCCCC#N)CCC3)cc1OC2(C)C [Compound 1.19, 4-cyanobutyl 1-((6aR,10aR)-1-hydroxy-6,6,9-trimethyl-6a,7,10,10a-tetrahydro-6H-benzo[c]chromen-3-yl)cyclo butanecarboxylate] | 1.5 | 107 | 0.9 | 1.8 | – | – | –
CC1=CC[C@@H]2[C@@H](C1)c1c(O)cc(C(C)(C)C(=O)OCCCN3CCOCC3)cc1OC2(C)C [Compound 1.25, 3-morpholinopropyl 2-((6aR,10aR)-1-hydroxy-6,6,9-trimethyl-6a,7,10,10a-tetrahydro-6H-benzo[c]chromen-3-yl)-2-methylpropanoate] | – | 200 | – | – | 10.4 | 15.2 | 8.7
CC1=CCC2[C@@H](C1)c1c(O)cc(C(C)(C)C(=O)OCCCCC#N)cc1OC2(C)C (stereo in doubt) [Compound 1.3, 4-cyanobutyl-2-((6aS, 10aR)-6a, 7, 10, 10a-tetrahydro-1-hydroxy-6,6,9-trimethyl-6H-benzo[c]chromen-3-yl)-2-methylpropanoate] | – | 40 | 0.7 | – | – | – | 0.8
CCOC(=O)C(C)(C)c1cc(OC)c(-c2cc(Cl)cc(Cl)c2)c(OC)c1 [Compound 4.6, Ethyl 2-(3′,5′-dichloro-2,6-dimethoxybiphenyl-4-yl)-2-methylpropanoate] | 1000 | – | 1000 | 1000 | – | – | –
CC(C)(C(=O)O)c1cc(O)c2c(c1)OC(C)(C)[C@@H]1CC=C(CO)C[C@@H]21 [Compound 2.1, 2-((6aR, 10aR)-6a,7,10,10a-tetrahydro-1-hydroxy-9-(hydroxymethyl)-6,6-dimethyl-6H-benzo[c]chromen-3-yl)-2-methylpropanoic Acid] | > 10000 | – | > 10000 | > 10000 | – | – | –
CCCCCCC(C)(C)c1cc(O)c2c(c1)OC(C)(C)[C@@H]1CCC(=O)OC[C@@H]21 [Compound 3.10, (5aR,11bR)-11-hydroxy-6,6-dimethyl-9-(2-methyloctan-2-yl)-4,5,5a,6-tetrahydro-1H-oxepino[4,3-c]chromen-3(11bH)-one] | – | 15 | – | – | – | – | –
CCOC(=O)C(C)(C)c1cc(O)c2c(c1)OC(C)(C)[C@@H]1CC=C(C)C[C@@H]21 [Compound 1.35, Ethyl-2-((6aR,10aR)-6a,7,10,10a-tetrahydro-1-hydroxy-6,6,9-trimethyl-6H-benzo[c]chromen-3-yl)-2-methylpropanoate] | 0.5 | – | 2.7 | 1.5 | – | – | –
CCCCCNC(=O)C(C)(C)c1cc(O)c2c(c1)OC(C)(C)[C@@H]1CC=C(C)C[C@@H]21 [Compound 1.31, 2-((6aR,10aR)-6a,7,10,10a-tetrahydro-1-hydroxy-6,6,9-trimethyl-6H-benzo[c]chromen-3-yl)-2-methyl-N-pentylpropanamide] | 9.2 | – | 6.3 | 2.8 | – | – | –
CCCCOC(=O)C(C)(C)c1cc(O)c2c(c1)OC(C)(C)[C@H]1CC=C(C)C[C@@H]21 [Compound 1.4, Butyl-2-((6aS, 10aR)-6a, 7, 10, 10a-tetrahydro-1-hydroxy-6,6,9-trimethyl-6H-benzo[c]chromen-3-yl)-2-methylpropanoate] | 0.6 | – | 0.6 | 0.7 | – | – | –
CC1=CC[C@@H]2[C@@H](C1)c1c(O)cc(CC(=O)O)cc1OC2(C)C [Compound 1.26, 2-((6aR,10aR)-6a,7,10,10a-tetrahydro-1-hydroxy-6,6,9-trimethyl-6H-benzo[c]chromen-3-yl)acetic Acid] | > 10000 | – | > 10000 | > 10000 | – | – | –
CC1=CC[C@@H]2[C@@H](C1)c1c(O)cc([C@@H](C)C(=O)O)cc1OC2(C)C [Compound 1.13, (R)-2-((6aR,10aR)-1-hydroxy-6,6,9-trimethyl-6a,7,10,10a-tetrahydro-6H-benzo[c]chromen-3-yl)propanoic Acid] | > 10000 | – | > 10000 | > 10000 | – | – | –
CC(C)(C(=O)O)c1cc(O)c2c(c1)OC(C)(C)[C@@H]1CC[C@H](O)C[C@@H]21 [Compound 3.7, 2-((6aR,9S,10aR)-6a,7,8,9,10,10a-hexahydro-1,9-dihydroxy-6,6-dimethyl-6H-benzo[c]chromen-3-yl)-2-methylpropanoic Acid] | > 10000 | – | > 10000 | > 10000 | – | – | –
CC1=CC[C@@H]2[C@@H](C1)c1c(O)cc(C3(C(=O)O)CCC3)cc1OC2(C)C [Compound 1.17, 1-((6aR,10aR)-1-hydroxy-6,6,9-trimethyl-6a,7,10,10a-tetrahydro-6H-benzo[c]chromen-3-yl)cyclobutanecarboxylic Acid] | > 10000 | – | > 10000 | > 10000 | – | – | –
CC1(C)Oc2cc(CC(=O)O)cc(O)c2[C@@H]2CC(=O)CC[C@H]21 [Compound 3.1, 2-((6aR,10aR)-6a,7,8,9,10,10a-hexahydro-1-hydroxy-6,6-dimethyl-9-oxo-6H-benzo[c]chromen-3-yl)acetic acid] | > 10000 | – | > 10000 | > 10000 | – | – | –
